Experimental data published in PubChem BioAssay (NCI).
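Cells were grown in 96-well plates and exposed to each compound for 48 hours at five concentrations; endpoints were interpolated linearly between bracketing concentrations, or set to the highest concentration if not reached. GI50: concentration for 50% inhibition of growth. At the TGI there is no net growth.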

How the values were obtained:
Experiment in all cases: NCI-60 cell line screen, 48 h
[1] = tested on: ACHN renal
[2] = tested on: HT29 colon
[3] = tested on: NCI-H226 lung
[4] = tested on: NCI-H23 lung
[5] = tested on: RPMI-8226 leukemia
[6] = tested on: SK-MEL-5 melanoma
[7] = tested on: SNB-19 CNS
[8] = tested on: SW-620 colon
[9] = tested on: TK-10 renal
[10] = tested on: UACC-62 melanoma

SMILES | TGI [1] [µM] | TGI [2] [µM] | TGI [3] [µM] | TGI [4] [µM] | TGI [5] [µM] | TGI [6] [µM] | TGI [7] [µM] | TGI [8] [µM] | TGI [9] [µM] | TGI [10] [µM] | GI50 [1] [µM] | GI50 [2] [µM] | GI50 [3] [µM] | GI50 [4] [µM] | GI50 [5] [µM] | GI50 [6] [µM] | GI50 [7] [µM] | GI50 [8] [µM] | GI50 [9] [µM] | GI50 [10] [µM]
O=C1Oc2cc3c(c4cccc1c24)OCN(c1ccc(Cl)cc1)C3 | > 100 | > 100 | > 100 | > 100 | 42.1 | > 100 | > 100 | > 55.3 | > 100 | > 75 |  |  |  |  |  |  |  |  |  | 
OCCNCO | > 100 | > 100 | > 100 | > 100 | > 100 | > 100 | > 100 | > 100 | > 100 | > 100 |  |  |  |  |  |  |  |  |  | 
Cc1c(Cl)cccc1Nc1ncccc1C(=O)O | > 100 | > 100 | > 100 | > 100 | > 100 | > 100 | > 100 | > 100 | > 100 | > 100 | 58.5 | > 100 | > 100 | 58.3 | 47.7 | 52.7 | > 100 | > 100 | > 100 | 48.3
N#Cc1cnn2ccn(C3OC(COC(=O)c4ccccc4)C(OC(=O)c4ccccc4)C3OC(=O)c3ccccc3)c12 (stereo not given) | > 21.5 | > 21.5 | > 21.5 | > 21.5 | > 21.5 | > 21.5 | > 21.5 | > 21.5 | > 31.6 | > 21.5 |  |  |  |  |  |  |  |  |  | 
NNC(=O)c1cnn(-c2ccnc3c(C(F)(F)F)cccc23)c1N | > 100 | > 100 | > 100 | > 100 | > 100 | > 100 | > 100 | > 100 | > 100 | > 100 | > 100 | > 100 | > 100 | > 100 | > 100 | > 100 | > 100 | > 100 | > 100 | > 100
O=C1CSC(N2CCN(c3cccc(Cl)c3)CC2)=N1 | > 100 | > 100 | > 100 | > 100 | > 100 | > 100 | > 100 | > 100 | > 100 | > 100 | > 100 | 46 | > 100 | > 100 | > 100 | > 100 | > 100 | > 100 | > 100 | > 100
OCc1c(-c2cccc3ccccc23)sc(-c2cccc3ccccc23)c1CO | 25.1 | 31.5 | 32.9 | 30.1 | 43.7 | 23.6 | 25.4 | 29.2 | 26.9 | 23.5 |  |  |  |  |  |  |  |  |  | 
CC(=O)/C=C/c1cccc(N=S)c1 | > 53.3 | 19.5 | > 83.3 | > 92.7 | > 27.8 | 63.4 | > 87.5 | 6.68 | > 89.9 | > 57.2 |  |  |  |  |  |  |  |  |  | 
Cc1cccc(C(C)(C)C)c1NC(=O)C(=O)Cc1nc2ccccc2s1 | > 100 | > 100 | > 100 | > 100 | > 100 | > 100 | > 100 | > 100 | > 100 | > 100 |  |  |  |  |  |  |  |  |  | 
O=C(O)Cc1c[nH]c2ccc(F)cc12 | > 100 | > 100 | > 100 | > 100 | > 100 | > 100 | > 100 | > 100 | > 100 | > 100 |  |  |  |  |  |  |  |  |  | 
COc1cc2c(NCCCCCCO[N+](=O)[O-])ncnc2c(OC)c1OC | > 100 | > 62 | 45.5 | 59.6 | 32.2 | 25 | > 100 | 70.5 | 49.4 | 43.6 |  |  |  |  |  |  |  |  |  | 
O=[n+]1c(CBr)c(CBr)n([O-])c2ccccc21 | 3.18 | 3.49 | 30.7 | 29.4 | 8.39 | 29.5 | 38.3 | 3.69 | 4.17 | 27.4 | 1.76 | 1.91 | 11.7 | 14.8 | 2.73 | 15.9 | 17.6 | 1.86 | 1.97 | 14.1
C1CN2N3CCCC23C1 (stereo not given) | > 100 | > 100 | > 100 | > 100 | > 100 | > 100 | > 100 | > 100 | > 100 | > 100 |  |  |  |  |  |  |  |  |  | 
COc1cc2c(c(O)c1C)C(=O)C(Cl)=CC2=O | 13.9 | 21.9 | 36.5 | 25 | 68.3 | 21.7 | > 86.4 | 8.29 | 15.3 | 13.8 |  |  |  |  |  |  |  |  |  | 
COc1ccc(CN2CCCC(C(=O)c3ccc(C(F)(F)F)cc3)C2)c(O)c1 (stereo not given) | > 100 | 33.9 | > 100 | > 100 | 62.4 | 29.8 | > 100 | 41.2 | 88.7 | 31.3 | 33.6 | 14.4 | 35.5 | 28.5 | 22 | 15.9 | 26.3 | 18.6 | 31.3 | 12.4
COc1cc([C@@H]2c3cc4c(cc3[C@@H](NC(=O)c3cccc([N+](=O)[O-])c3)C3COC(=O)[C@@H]32)OCO4)cc(OC)c1O (stereo not given in full) | 1.62 | 11.7 | 1.02 | 1.11 | > 22.1 | 3.65 | 14.1 | 24.3 | 9.94 | 7.54 |  |  |  |  |  |  |  |  |  | 
CNC(=O)c1cc(Oc2ccc3c(c2)sc2nc(-c4ccc(N)cc4)cn23)ccn1 | > 100 | 0.802 | > 100 | > 100 | 26.3 | 11.5 | > 100 | > 100 | > 100 | > 100 | 0.75 | 0.197 | 2.01 | 0.491 | 0.32 | 0.222 | 0.405 | 0.153 | 0.278 | 0.0982
O=C1/C(=C/c2ccccc2)CN(C(=O)Oc2ccc(Cl)cc2)C/C1=C\c1ccccc1 | 8.86 | 2.97 | 16.6 | 11.1 | 0.902 | 4.14 | 10.1 | 2.77 | 14.9 | 5.42 |  |  |  |  |  |  |  |  |  | 
